± gives the expanded uncertainty stated by the source.
Columns and labels:
[1] = xn = mol fraction of the nth substance listed; settings: 303.15 K, 101 kPa, Liquid
[2] = refractive index (Na D-line) (dimensionless); xn = mol fraction of the nth substance listed; settings: 303.15 K, 101 kPa, Liquid, Standard Abbe refractometry
[3] = excess molar enthalpy (molar enthalpy of mixing); xn = mol fraction of the nth substance listed; settings: 303.15 K, 101 kPa, Liquid, Flow calorimetry

CCO [ethanol] + CC(C)CC(C)(C)C
x1 = 1
Settings	mass density [kg/m3]	refractive index
[1]	781.99 ± 0.23	–
[2]	–	1.35733 ± 0.00068

CC(C)CC(C)(C)C [2,2,4-trimethylpentane] + CC(C)OC(C)C
x2 = 0
Settings	mass density [kg/m3]	refractive index
[1]	684.1 ± 0.31	–
[2]	–	1.3865 ± 0.00068

CC(C)CC(C)(C)C [2,2,4-trimethylpentane] + CCO
Settings	mass density, [1] [kg/m3]	refractive index, [2]
x2 = 0	684.1 ± 0.31	1.3865 ± 0.00068
x2 = 0.0498	–	1.38633 ± 0.00068
x2 = 0.061	685.45 ± 0.31	–
x2 = 0.0992	–	1.38632 ± 0.00068
x2 = 0.1201	687.2 ± 0.31	–
x2 = 0.1997	–	1.38482 ± 0.00068
x2 = 0.2363	691.81 ± 0.3	–
x2 = 0.2998	–	1.38404 ± 0.00068
x2 = 0.3467	697.27 ± 0.3	–
x2 = 0.4005	–	1.38109 ± 0.00068
x2 = 0.453	703.74 ± 0.3	–
x2 = 0.499	–	1.37746 ± 0.00068
x2 = 0.5525	711.14 ± 0.29	–
x2 = 0.5999	–	1.37322 ± 0.00068
x2 = 0.6502	720.18 ± 0.28	–
x2 = 0.7	–	1.36851 ± 0.00068
x2 = 0.7431	730.88 ± 0.28	–
x2 = 0.8001	–	1.36386 ± 0.00068
x2 = 0.8322	744.05 ± 0.27	–
x2 = 0.8999	–	1.36145 ± 0.00068
x2 = 0.9176	760.58 ± 0.25	–
x2 = 0.9508	–	1.35789 ± 0.00068
x2 = 0.9599	770.78 ± 0.24	–

CC(C)OC(C)C [diisopropyl ether] + CCO
Settings	excess molar enthalpy [kcal/mol]	mass density [kg/m3]	refractive index
[1], x1 = 0.0495	–	776.55 ± 0.24	–
[1], x1 = 0.0994	–	771.45 ± 0.24	–
[1], x1 = 0.2002	–	762.41 ± 0.25	–
[1], x1 = 0.2997	–	754.04 ± 0.26	–
[1], x1 = 0.4003	–	746.63 ± 0.26	–
[1], x1 = 0.5012	–	740.01 ± 0.27	–
[1], x1 = 0.6012	–	734.1 ± 0.27	–
[1], x1 = 0.7018	–	728.75 ± 0.28	–
[1], x1 = 0.804	–	723.6 ± 0.28	–
[1], x1 = 0.8996	–	718.96 ± 0.28	–
[1], x1 = 0.9505	–	716.37 ± 0.29	–
[1], x1 = 1	–	713.78 ± 0.29	–
[2], x1 = 0.0495	–	–	1.35854 ± 0.00068
[2], x1 = 0.0994	–	–	1.35989 ± 0.00068
[2], x1 = 0.2002	–	–	1.36147 ± 0.00068
[2], x1 = 0.2997	–	–	1.36232 ± 0.00068
[2], x1 = 0.4003	–	–	1.36325 ± 0.00068
[2], x1 = 0.5012	–	–	1.36309 ± 0.00068
[2], x1 = 0.6012	–	–	1.36285 ± 0.00068
[2], x1 = 0.7018	–	–	1.36225 ± 0.00068
[2], x1 = 0.804	–	–	1.36246 ± 0.00068
[2], x1 = 0.8996	–	–	1.36213 ± 0.00068
[2], x1 = 0.9505	–	–	1.36303 ± 0.00068
[2], x1 = 1	–	–	1.36425 ± 0.00068
[3], x1 = 0.0212	0.0024 ± 0.000203	–	–
[3], x1 = 0.0437	0.00524 ± 0.000232	–	–
[3], x1 = 0.0676	0.00902 ± 0.000287	–	–
[3], x1 = 0.0931	0.0136 ± 0.000382	–	–
[3], x1 = 0.1204	0.0189 ± 0.000478	–	–
[3], x1 = 0.1497	0.0251 ± 0.000621	–	–
[3], x1 = 0.1811	0.0321 ± 0.000765	–	–
[3], x1 = 0.215	0.0399 ± 0.000908	–	–
[3], x1 = 0.2516	0.0483 ± 0.0011	–	–
[3], x1 = 0.2912	0.0574 ± 0.00129	–	–
[3], x1 = 0.3343	0.0661 ± 0.00146	–	–
[3], x1 = 0.3813	0.0761 ± 0.00167	–	–
[3], x1 = 0.4328	0.086 ± 0.00189	–	–
[3], x1 = 0.4894	0.0958 ± 0.0021	–	–
[3], x1 = 0.5521	0.104 ± 0.00227	–	–
[3], x1 = 0.6217	0.11 ± 0.00239	–	–
[3], x1 = 0.6995	0.113 ± 0.00239	–	–
[3], x1 = 0.7871	0.105 ± 0.00229	–	–
[3], x1 = 0.8864	0.0783 ± 0.00172	–	–

CCO [ethanol] + CC(C)OC(C)C
x2 = 0
Settings	mass density [kg/m3]	refractive index
[1]	781.99 ± 0.23	–
[2]	–	1.35733 ± 0.00068

CC(C)OC(C)C [diisopropyl ether] + CC(C)CC(C)(C)C
Settings	excess molar enthalpy [kcal/mol]	mass density [kg/m3]	refractive index
[1], x1 = 0.0614	–	685.5 ± 0.31	–
[1], x1 = 0.1204	–	686.92 ± 0.31	–
[1], x1 = 0.2365	–	689.82 ± 0.31	–
[1], x1 = 0.3486	–	692.78 ± 0.3	–
[1], x1 = 0.4525	–	695.6 ± 0.3	–
[1], x1 = 0.5542	–	698.54 ± 0.3	–
[1], x1 = 0.6497	–	701.45 ± 0.3	–
[1], x1 = 0.7437	–	704.5 ± 0.29	–
[1], x1 = 0.8322	–	707.61 ± 0.29	–
[1], x1 = 0.9187	–	710.76 ± 0.29	–
[1], x1 = 0.9598	–	712.33 ± 0.29	–
[1], x1 = 1	–	713.78 ± 0.29	–
[2], x1 = 0.0614	–	–	1.38505 ± 0.00068
[2], x1 = 0.1204	–	–	1.38372 ± 0.00068
[2], x1 = 0.2365	–	–	1.38115 ± 0.00068
[2], x1 = 0.3486	–	–	1.37862 ± 0.00068
[2], x1 = 0.4525	–	–	1.37619 ± 0.00068
[2], x1 = 0.5542	–	–	1.37383 ± 0.00068
[2], x1 = 0.6497	–	–	1.37172 ± 0.00068
[2], x1 = 0.7437	–	–	1.36963 ± 0.00068
[2], x1 = 0.8322	–	–	1.36774 ± 0.00068
[2], x1 = 0.9187	–	–	1.36596 ± 0.00068
[2], x1 = 0.9598	–	–	1.36512 ± 0.00068
[2], x1 = 1	–	–	1.36425 ± 0.00068
[3], x1 = 0.0577	0.00932 ± 0.000311	–	–
[3], x1 = 0.1144	0.0178 ± 0.000454	–	–
[3], x1 = 0.1702	0.0253 ± 0.000621	–	–
[3], x1 = 0.2252	0.0316 ± 0.000741	–	–
[3], x1 = 0.2793	0.0368 ± 0.00086	–	–
[3], x1 = 0.3326	0.041 ± 0.000932	–	–
[3], x1 = 0.385	0.0441 ± 0.001	–	–
[3], x1 = 0.4367	0.0461 ± 0.00105	–	–
[3], x1 = 0.4875	0.0471 ± 0.00108	–	–
[3], x1 = 0.5376	0.0472 ± 0.00108	–	–
[3], x1 = 0.587	0.0462 ± 0.00105	–	–
[3], x1 = 0.6356	0.0443 ± 0.001	–	–
[3], x1 = 0.6835	0.0415 ± 0.000956	–	–
[3], x1 = 0.7307	0.038 ± 0.000884	–	–
[3], x1 = 0.7772	0.0337 ± 0.000789	–	–
[3], x1 = 0.823	0.0284 ± 0.000669	–	–
[3], x1 = 0.8682	0.0223 ± 0.00055	–	–
[3], x1 = 0.9128	0.0156 ± 0.000406	–	–
[3], x1 = 0.9567	0.00795 ± 0.000287	–	–

Source: the NIST ThermoML archive (doi:10.1021/je9001416)
